One data set concerns the target T1, trypsin (Bos taurus, UniProt P00760).
T1 sequence (P00760 24-246): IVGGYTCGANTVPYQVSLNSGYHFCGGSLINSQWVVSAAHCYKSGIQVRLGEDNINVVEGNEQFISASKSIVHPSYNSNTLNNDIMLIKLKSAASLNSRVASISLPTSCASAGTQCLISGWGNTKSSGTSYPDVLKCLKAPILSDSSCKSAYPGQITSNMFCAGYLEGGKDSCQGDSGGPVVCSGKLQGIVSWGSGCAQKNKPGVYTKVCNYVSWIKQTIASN
The data set is described as follows: in vitro. The procedure:
FIG. 17. […] At different time point, 25 μL aliquots was taken out, and 10% (v/v) TFA was added to terminate the reaction.
(§1) Mix by centrifugation at 8000 rpm for 30 seconds.
Arrange a certain volume of 0.05 μg/μL trypsin solution in another sterile EP. Incubate the EP tubes containing peptides and enzymes at 37° C. for 5 min, and separately add 6 μL of trypsin solution to each EP tube containing peptides and mix well. Start timing and extract 25 μL of reaction solution at 1.5, 3.0, 4.5, 6.0 and 9.0 min later, respectively. Add 3.75 μL of 10% TFA to terminate the reaction and mix well by centrifugation at 8000 rpm for 30 seconds.
Arrange a certain volume of 0.05 μg/μL trypsin solution in another sterile EP. Incubate the EP tubes containing peptides and enzymes at 37° C. for 5 min, and add 9 μL of trypsin solution to each EP tube containing peptides and mix well. Start timing and extract 25 μL of reaction solution at 1.5, 3.0, 4.5, 6.0, 9.0, 15.0, 30.0, and 60.0 min later, respectively. Add 3.75 μL of 10% TFA to terminate the reaction and mix well by centrifugation at 8000 rpm for 30 seconds.
(§2) Referring to the experimental method in Example 5, in vitro stability of salmon Calcitonin analogs with oral administration activity to the enzymatic hydrolysis by trypsin, chymotrypsin and elastase were performed.
(§3) Referring to the experimental method in Example 5, in vitro stability of IL-17A inhibitory peptides towards the enzymatic hydrolysis by trypsin, chymotrypsin and elastase were performed.

Another data set has as its target chymotrypsin (Bos taurus, UniProt P00766). Briefly: in vitro. Here is the method: FIG. 18. […] At different time point, 25 μL aliquots was taken out, and 10% (v/v) TFA was added to terminate the reaction.
as §1
Arrange a certain volume of 0.05 μg/μL chymotrypsin solution in another sterile EP. Incubate the EP tubes containing peptides and enzymes at 37° C. for 5 min, and add 3 μL of […] solution to each EP tube containing peptides and mix well. Start timing and extract 25 μL of reaction solution at 1.5, 3.0, 4.5, 6.0 and 9.0 min later, respectively. Add 3.75 μL of 10% TFA to terminate the reaction and mix well by centrifugation at 8000 rpm for 30 seconds.
Arrange a certain volume of 0.05 μg/μL chymotrypsin solution in another sterile EP. Incubate the EP tubes containing peptides and enzymes at 37° C. for 5 min, and then add 4.5 μL of chymotrypsin solution to each EP tube containing peptides and mix well. Start timing and extract 25 μL of reaction solution at 1.5, 3.0, 4.5, 6.0, 9.0, 15.0, 30.0, and 60.0 min later, respectively. Add 3.75 μL of 10% TFA to terminate the reaction and mix well by centrifugation at 8000 rpm for 30 seconds.
as §2, §3

Data set [1] addresses porcine pancreatic elastase (Sus scrofa, UniProt P00772). Briefly: Elastase inhibitory activity of peptides (AAApNA hydrolysis; IC50, Ki, residual activity). Format: biochemical. Conditions: for IC50: elastase 0.5 μM, AAApNA 1 mM. The procedure: The inhibition constants of various synthetic active peptide inhibitors (molecular scaffolds) against seine proteases were measured. The substrates N-succinyl-Ala-Ala-Pro-Phe-p-nitroaniline (AAPFpNA), Nα—Benzoyl-L-arginine-4-nitroaniline hydrochloride (BApNA) and N-succinyl-[…] (AAApNA) are used in competitive binding reaction to determine the inhibitory activities against α-chymotrypsin, bovine trypsin, and porcine pancreatic elastase, respectively. Experiments for α-chymotrypsin and bovine trypsin inhibition were measured in 20 mM CaCl2, 50 mM Tris-HCl buffer (pH 7.8), and that for porcine elastase inhibition was measured in 50 mM Tris-HCl buffer (pH 8.0). The concentration of the peptide was measured using optical density (OD) at 280 nm. The Michaelis constant (Km) of the enzyme hydrolysis substrate is calculated from the initial rate of substrate hydrolysis at 405 nm. The absorbance value of the substrate was measured at 405 nm after complete hydrolysis. All data were processed using nonlinear regression.
• (1) Added a total 198 μL of reaction buffer (20 mM CaCl2, 50 mM Tris-HCl (pH 8.0)) into the 96 well plate, followed by preheating at 37° C. for 15 min. Then added 2 μL of different concentrations of substrates (pNA, dissolved in DMSO), and mixed by centrifugation at 500 rpm for 1 min. Finally, the plate was incubated at 37° C. for 30 min, and the absorbance value at 405 nm was measured. In the 200 μL of reaction system, the final concentrations of pNA were 0, 0.025, 0.05, 0.075, 0.1, 0.125, 0.15, 0.175, and 0.2 mM, respectively. Make three repetitions for each concentration and plot the OD405 m value with pNA concentration to obtain the standard curve. • (2) Added a total 190 μL of reaction buffer (20 mM CaCl2, 50 mM Tris-HCl (pH 8.0)) and 8 μL of 4.375 μM elastase into the 96 well plate, followed by preheating at 37° C. for 5 min. Then added 2 μL of different concentrations of substrates (AAApNA, dissolved in DMSO), and mixed by centrifugation at 500 rpm for 1 min. Finally, the plate was incubated at 37° C. for 30 min, and the absorbance value at 405 nm was measured. In the 200 μL of reaction system, the final concentrations of AAApNA were 0, 0.125, 0.166, 0.2, 0.25, 0.33, 0.6, 0.75, and 1.25 mM, respectively. Make three repetitions for each concentration and plot the OD405 nm value with time to obtain the corresponding curve. Divide the slope of the curve by the slope of the standard curve and the enzyme concentration to obtain the initial velocity V0 (mM/(min*mM protein). Plot the initial velocity V0 with the concentration of substrate AAApNA using Prism software, and the Michaelis constant Km value of elastase hydrolyzing AAApNA was obtained.
• (1) Added a total 190 μL of different concentrations of peptides (ECs) against elastase and reaction buffer (20 mM CaCl2, 50 mM Tris-HCl buffer (pH 8.0)) into the pre-cold 96 well plate, followed by preheating at 37° C. for 5 min and centrifugated at 500 rpm for 1 min and allowed to stand for 4 minutes. Then added 8 μL of 12.5 μM elastase and incubated at 37° C. for 10 min and centrifugated at 500 rpm for 1 min and allowed to stand for 9 minutes. Finally, added 2 μL of 100 mM AAApNA, and mixed by centrifugation at 500 rpm for 1 min. The plate was incubated at 37° C. for 60 min, and the absorbance value at 405 nm was measured. Three repetitions were made, and only reaction buffer and substrate were added in the blank control as the minimum absorption value (Min OD405 nm); Only reaction buffer, enzyme and substrate were added in the negative control as the maximum absorption value (Max OD405 nm). • (2) In the 200 μL of reaction system, the final concentrations of elastase and AAApNA were 0.5 μM and 1 mM, respectively. • (3) Data statistics
Residual activity of enzyme (%)=(1−(Max OD405 nm−Sample OD405 nm)/(Max OD405 nm−Min OD405 nm))*100 […]

[2] abbreviates: isolated enzyme trypsin, pH 7.8.
The mark [3] stands for this setting: isolated enzyme chymotrypsin, pH 7.8, Remaining peak area (%)/chymotrypsin.

Structures are written as SMILES. Bridge positions count the residues as written; N and C are the ends. Peptide text beside a SMILES is read from it.

These results are taken from US20230416329A1, “A PEPTIDE WITH DISULFIDE BONDS AND INHIBITORY ACTIVITY AGAINST SERINE PROTEASES, DERIVED HYBRID PEPTIDES THEREOF, AND USES THEREOF” (INSTITUTE OF MATERIA MEDICA , CHINESE ACADEMY OF MEDICAL …, priority 2020, published 2023).

Chain of porcine pancreatic elastase (P00772 27-266): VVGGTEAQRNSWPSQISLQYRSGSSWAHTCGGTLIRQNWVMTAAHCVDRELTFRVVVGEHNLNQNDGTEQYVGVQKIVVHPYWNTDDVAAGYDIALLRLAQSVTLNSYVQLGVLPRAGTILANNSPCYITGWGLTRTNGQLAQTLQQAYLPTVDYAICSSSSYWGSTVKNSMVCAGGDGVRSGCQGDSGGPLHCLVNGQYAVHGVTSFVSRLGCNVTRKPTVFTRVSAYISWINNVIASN

The term share remaining denotes the share of the starting amount still present when the sample was taken. Low values mean more turnover, high ones less turnover. As to `CC[C@H](C)[C@@H]1NC(=O)[C@H](CO)NC(=O)[C@H](Cc2ccc(O)cc2)NC(=O)[C@H]([C@@H](C)O)NC(=O)[C@@H](NC(=O)[C@H](Cc2ccccc2)NC(=O)CNC(=O)[C@@H]2CCCN2C(=O)[C@@H](NC(=O)CNC(=O)[C@H](CO)NC(=O)CNC(=O)[C@@H](NC(=O)[C@H](CC(N)=O)NC(=O)[C@@H](NC(=O)[C@H](CCCNC(=N)N)NC(=O)[C@@H]2CCCN2C(=O)[C@H](Cc2ccc(O)cc2)NC(=O)[C@@H](NC(=O)[C@H](CCC(N)=O)NC(=O)[C@H](CC(C)C)NC(=O)[C@H](CCCCN)NC(=O)[C@H](Cc2c[nH]cn2)NC(=O)[C@H](C)NC(=O)[C@H](CCC(=O)O)NC(=O)[C@H](CCC(N)=O)NC(=O)[C@H](CO)NC(=O)[C@H](CC(C)C)NC(=O)[C@H](CCCCN)NC(=O)CNC(=O)[C@H](CC(C)C)NC(=O)CNC(=O)[C@@H]2CSSC[C@H](N)C(=O)N[C@@H](CO)C(=O)N[C@@H](CC(N)=O)C(=O)N[C@@H](CC(C)C)C(=O)N[C@@H](CO)C(=O)N[C@@H]([C@@H](C)O)C(=O)N2)[C@@H](C)O)[C@@H](C)O)[C@@H](C)O)[C@@H](C)O)CSSC[C@@H](C(=O)N[C@@H](Cc2ccc(O)cc2)C(=O)NCC(=O)O)NC(=O)[C@H](CCC(N)=O)NC(=O)[C@@H]2CCCN2C(=O)[C@@H]2CCCN2C1=O` [Cal-CH], the “Remaining peak area (%)/Trypsin” value at trypsin (0 h) worked out at 100.0 ± 0.0%. Also, on trypsin (setting [2]), the fraction remaining at 0.025 h, 60 μM was determined as 13.4 ± 2.3%; the share remaining at 0.05 h, 60 μM came to 0%; the fraction remaining at 0.075 h, 60 μM turned out to be 0%; the fraction remaining at 0.1 h, 60 μM was 0%. In addition, the share remaining at 0.15 h, 60 μM at trypsin (setting [2]) was 0%. The “stability towards chymotrypsin hydrolysis (in words)” value on chymotrypsin is “resistant to the corresponding protease degradation”. For the same compound, the “Remaining peak area (%)/chymotrypsin” value on chymotrypsin (0 h) amounted to 100.0 ± 0.0%. Moreover, at chymotrypsin (setting [3]), the share remaining at 0.025 h, 60 μM came out at 89.3 ± 2.9%; the amount remaining at 0.05 h, 60 μM is 90.9 ± 4.7%; the share remaining at 0.075 h, 60 μM is 83.8 ± 0.4%; the fraction remaining at 0.1 h, 60 μM was found to be 82.2 ± 4.1%. Also, on chymotrypsin (setting [3]), the share remaining at 0.15 h, 60 μM is 52.4%; the share remaining at 0.25 h, 60 μM was 51.8 ± 0.4%; the share remaining at 0.5 h, 60 μM turned out to be 51.2 ± 1.8%; the amount remaining at 1 h, 60 μM turned out to be 24.6 ± 0.5%.
For orientation: Ki means a measure of affinity in units of concentration, obtained from inhibition or displacement. For `CC[C@H](C)[C@@H]1NC(=O)[C@H](CO)NC(=O)[C@H](C)NC(=O)[C@H]([C@@H](C)O)NC(=O)[C@@H](NC(=O)[C@@H](N)CC(C)C)CSSC[C@@H](C(=O)N[C@@H](Cc2ccc(O)cc2)C(=O)O)NC(=O)[C@H](CCC(N)=O)NC(=O)[C@@H]2CCCN2C(=O)[C@@H]2CCCN2C1=O` [EC1] (H-LCTASIPPQCY-OH; disulfide 2-10; C-terminus assumed), in data set [1], the “inhibitory activity against elastase (in words)” value is reported as “better inhibitory activity against Elastase”. Also, the inhibition constant (Ki) in data set [1] (read-out: Ki) worked out at 0.33 µM.
The term IC50 denotes the concentration needed to halve the response being measured. As to `CC[C@H](C)[C@@H]1NC(=O)[C@H](CO)NC(=O)[C@H](C)NC(=O)[C@H]([C@@H](C)O)NC(=O)[C@H](C)NC(=O)[C@H](CC(C)C)NC(=O)CNC(=O)[C@@H](N)CSSC[C@@H](C(=O)N[C@@H](Cc2ccc(O)cc2)C(=O)O)NC(=O)[C@H](CCC(N)=O)NC(=O)[C@@H]2CCCN2C(=O)[C@@H]2CCCN2C1=O` [EC3] (H-CGLATASIPPQCY-OH; disulfide 1-12; N-terminus and C-terminus assumed), the IC50 in data set [1] was above 50 µM.
The same measure, in the same setting: then `CC[C@H](C)[C@@H]1NC(=O)[C@H](CO)NC(=O)[C@H](C)NC(=O)[C@H]([C@@H](C)O)NC(=O)CNC(=O)[C@H](CC(C)C)NC(=O)CNC(=O)[C@@H](N)CSSC[C@@H](C(=O)N[C@@H](Cc2ccc(O)cc2)C(=O)O)NC(=O)[C@H](CCC(N)=O)NC(=O)[C@@H]2CCCN2C(=O)[C@@H]2CCCN2C1=O` [EC4] (H-CGLGTASIPPQCY-OH; disulfide 1-12), with above 50 µM.
In data set [1], `CC[C@H](C)[C@@H]1NC(=O)[C@H](CO)NC(=O)[C@H](C)NC(=O)[C@H]([C@@H](C)O)NC(=O)[C@H](C)NC(=O)[C@H](CC(C)C)NC(=O)[C@@H](N)CSSC[C@@H](C(=O)N[C@@H](Cc2ccc(O)cc2)C(=O)O)NC(=O)[C@H](CCC(N)=O)NC(=O)[C@@H]2CCCN2C(=O)[C@@H]2CCCN2C1=O` [EC5] (H-CLATASIPPQCY-OH; disulfide 1-11; N-terminus and C-terminus assumed) showed an IC50 above 50 µM.
The same measure, in the same setting: in the case of `CC[C@H](C)[C@@H]1NC(=O)[C@@H]2CCCN2C(=O)[C@@H]2CCCN2C(=O)[C@H]([C@@H](C)CC)NC(=O)[C@H](CO)NC(=O)[C@H](C)NC(=O)[C@H]([C@@H](C)O)NC(=O)[C@H](C)NC(=O)[C@H](CC(C)C)NC(=O)CNC(=O)[C@@H](N)CSSC[C@@H](C(=O)N[C@@H](CCC(N)=O)C(=O)O)NC1=O` [EC6] (H-CGLATASIPPICQ-OH; disulfide 1-12; N-terminus and C-terminus assumed) it was above 50 µM.
For `CC[C@H](C)[C@@H]1NC(=O)[C@@H]2CCCN2C(=O)[C@@H]2CCCN2C(=O)[C@H]([C@@H](C)CC)NC(=O)[C@H](CO)NC(=O)[C@H](CC(C)C)NC(=O)[C@H]([C@@H](C)O)NC(=O)[C@H](C)NC(=O)[C@H](CC(C)C)NC(=O)CNC(=O)[C@@H](N)CSSC[C@@H](C(=O)N[C@@H](CCC(N)=O)C(=O)O)NC1=O` [EC7] (H-CGLATLSIPPICQ-OH; disulfide 1-12; N-terminus and C-terminus assumed), the “inhibitory activity against elastase (in words)” value in data set [1] is recorded as “weaker inhibitory activity”.
